These are literature values, as cited in patent publication US20230302026A1, “IMMUNOMODULATION FORMULATIONS AND RELATED METHODS” (priority 2020, published 2023).

≈ marks a conversion by molar mass, not a printed value. Like-named read-outs stand apart in the source and are kept apart here.

Some targets named below: Adenosine A2A (Homo sapiens, UniProt P29274); GPR55 (Homo sapiens, UniProt Q9Y2T6); TRPV1 (Homo sapiens, UniProt Q8NER1).
Series [1] addresses T1, CB2 (Homo sapiens, UniProt P34972).
The subject of the next series is inflammation. To be noted: animal model.
Series [2] deals with T2, CB1 (Homo sapiens, UniProt P21554). Conditions: read-out: Ki, affinity for the human recombinant CB1 receptor.
Target sequence in this assay (P21554 whole entry): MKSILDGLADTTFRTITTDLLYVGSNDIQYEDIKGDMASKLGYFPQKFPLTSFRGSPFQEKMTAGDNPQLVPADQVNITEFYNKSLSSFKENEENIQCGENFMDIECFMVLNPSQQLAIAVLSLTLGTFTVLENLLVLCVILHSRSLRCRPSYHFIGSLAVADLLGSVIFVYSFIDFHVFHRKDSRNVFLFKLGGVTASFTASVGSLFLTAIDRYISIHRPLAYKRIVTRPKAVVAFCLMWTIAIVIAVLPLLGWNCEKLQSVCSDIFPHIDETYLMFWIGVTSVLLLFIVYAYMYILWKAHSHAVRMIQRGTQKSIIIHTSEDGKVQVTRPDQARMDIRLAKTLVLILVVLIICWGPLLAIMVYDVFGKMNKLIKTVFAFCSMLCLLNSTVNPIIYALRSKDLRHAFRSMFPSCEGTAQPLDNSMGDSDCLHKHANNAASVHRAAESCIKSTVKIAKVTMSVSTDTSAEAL
Series [3] concerns the target T3, FAAH (Homo sapiens, UniProt O00519).
T3 sequence (O00519 1-579): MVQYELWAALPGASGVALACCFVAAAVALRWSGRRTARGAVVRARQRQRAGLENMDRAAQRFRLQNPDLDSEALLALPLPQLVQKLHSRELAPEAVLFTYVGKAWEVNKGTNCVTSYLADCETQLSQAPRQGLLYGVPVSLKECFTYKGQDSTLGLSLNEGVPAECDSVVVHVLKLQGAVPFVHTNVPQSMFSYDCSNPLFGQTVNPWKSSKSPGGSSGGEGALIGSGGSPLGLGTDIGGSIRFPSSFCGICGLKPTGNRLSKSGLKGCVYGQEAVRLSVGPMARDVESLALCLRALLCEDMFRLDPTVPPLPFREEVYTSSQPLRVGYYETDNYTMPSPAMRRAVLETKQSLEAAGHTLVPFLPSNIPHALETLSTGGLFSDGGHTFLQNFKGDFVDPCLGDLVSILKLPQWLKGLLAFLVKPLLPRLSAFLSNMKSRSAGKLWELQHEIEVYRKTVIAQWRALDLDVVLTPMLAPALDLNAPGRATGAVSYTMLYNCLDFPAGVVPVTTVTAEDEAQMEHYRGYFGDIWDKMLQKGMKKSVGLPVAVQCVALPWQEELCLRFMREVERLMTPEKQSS

Series [4] has as its target T2, CB1.
Target sequence in this assay (P21554 whole entry, species assumed): as the sequence (P21554 whole entry) above
A further series has as its target T4, 5-HT1a (Homo sapiens, UniProt P08908).
T4 sequence (P08908 1-422): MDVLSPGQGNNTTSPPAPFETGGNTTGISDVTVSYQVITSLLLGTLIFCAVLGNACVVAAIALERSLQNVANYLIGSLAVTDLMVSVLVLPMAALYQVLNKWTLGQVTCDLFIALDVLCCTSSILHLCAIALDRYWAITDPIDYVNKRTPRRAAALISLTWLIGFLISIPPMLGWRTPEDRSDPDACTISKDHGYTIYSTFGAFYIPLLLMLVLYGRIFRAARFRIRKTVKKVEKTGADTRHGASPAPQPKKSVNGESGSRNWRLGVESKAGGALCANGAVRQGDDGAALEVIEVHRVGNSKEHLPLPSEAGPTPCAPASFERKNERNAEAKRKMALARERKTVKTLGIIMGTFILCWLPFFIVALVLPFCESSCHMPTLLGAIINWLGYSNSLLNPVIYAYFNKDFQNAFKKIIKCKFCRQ

In series [5] the target is T1, CB2. This is another data set of the same source.
For the next series, the target named is monoamine oxidase. To be noted: in vitro; read-out: IC50 as monoamine oxidase inhibitor (MAOI).
In the next series the target is T5, MAGL (Homo sapiens, UniProt Q99685).
T5 sequence (Q99685 1-303): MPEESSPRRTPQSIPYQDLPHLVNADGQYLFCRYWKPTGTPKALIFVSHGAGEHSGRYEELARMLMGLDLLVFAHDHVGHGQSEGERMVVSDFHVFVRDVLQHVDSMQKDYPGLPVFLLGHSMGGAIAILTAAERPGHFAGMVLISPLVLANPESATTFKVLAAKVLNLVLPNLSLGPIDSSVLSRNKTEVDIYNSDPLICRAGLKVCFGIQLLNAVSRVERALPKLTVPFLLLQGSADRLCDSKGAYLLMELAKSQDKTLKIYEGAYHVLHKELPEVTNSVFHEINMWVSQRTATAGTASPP
To be noted: read-out: IC50 as MAGL inhibitor.

The subject of series [6] is FAAH. Conditions: read-out: IC50 as FAAH inhibitor.
The conditions of series [7]: at 18° C.

T1 sequence (P34972 whole entry): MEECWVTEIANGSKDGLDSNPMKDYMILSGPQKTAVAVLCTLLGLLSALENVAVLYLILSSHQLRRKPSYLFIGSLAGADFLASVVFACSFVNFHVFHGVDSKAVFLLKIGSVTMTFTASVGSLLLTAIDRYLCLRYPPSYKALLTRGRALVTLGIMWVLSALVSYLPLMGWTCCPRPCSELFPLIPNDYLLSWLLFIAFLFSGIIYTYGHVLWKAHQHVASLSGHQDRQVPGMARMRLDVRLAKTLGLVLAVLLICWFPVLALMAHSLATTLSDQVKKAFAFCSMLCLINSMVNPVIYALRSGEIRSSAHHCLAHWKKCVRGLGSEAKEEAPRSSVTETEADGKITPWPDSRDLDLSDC
Chain of Adenosine A2A (P29274 whole entry): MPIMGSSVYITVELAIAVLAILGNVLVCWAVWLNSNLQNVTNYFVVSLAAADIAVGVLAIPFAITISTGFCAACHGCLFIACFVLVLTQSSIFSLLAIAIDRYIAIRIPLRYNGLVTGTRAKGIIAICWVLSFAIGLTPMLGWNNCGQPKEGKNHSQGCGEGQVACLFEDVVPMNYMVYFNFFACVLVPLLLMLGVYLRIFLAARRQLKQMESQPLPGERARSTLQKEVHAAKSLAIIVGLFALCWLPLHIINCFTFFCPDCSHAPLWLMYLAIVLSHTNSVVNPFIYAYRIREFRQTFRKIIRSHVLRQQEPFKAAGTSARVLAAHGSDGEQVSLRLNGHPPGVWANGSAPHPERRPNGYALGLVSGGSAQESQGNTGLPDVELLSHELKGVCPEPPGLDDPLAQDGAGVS
Chain of TRPV1 (Q8NER1 whole entry, species assumed): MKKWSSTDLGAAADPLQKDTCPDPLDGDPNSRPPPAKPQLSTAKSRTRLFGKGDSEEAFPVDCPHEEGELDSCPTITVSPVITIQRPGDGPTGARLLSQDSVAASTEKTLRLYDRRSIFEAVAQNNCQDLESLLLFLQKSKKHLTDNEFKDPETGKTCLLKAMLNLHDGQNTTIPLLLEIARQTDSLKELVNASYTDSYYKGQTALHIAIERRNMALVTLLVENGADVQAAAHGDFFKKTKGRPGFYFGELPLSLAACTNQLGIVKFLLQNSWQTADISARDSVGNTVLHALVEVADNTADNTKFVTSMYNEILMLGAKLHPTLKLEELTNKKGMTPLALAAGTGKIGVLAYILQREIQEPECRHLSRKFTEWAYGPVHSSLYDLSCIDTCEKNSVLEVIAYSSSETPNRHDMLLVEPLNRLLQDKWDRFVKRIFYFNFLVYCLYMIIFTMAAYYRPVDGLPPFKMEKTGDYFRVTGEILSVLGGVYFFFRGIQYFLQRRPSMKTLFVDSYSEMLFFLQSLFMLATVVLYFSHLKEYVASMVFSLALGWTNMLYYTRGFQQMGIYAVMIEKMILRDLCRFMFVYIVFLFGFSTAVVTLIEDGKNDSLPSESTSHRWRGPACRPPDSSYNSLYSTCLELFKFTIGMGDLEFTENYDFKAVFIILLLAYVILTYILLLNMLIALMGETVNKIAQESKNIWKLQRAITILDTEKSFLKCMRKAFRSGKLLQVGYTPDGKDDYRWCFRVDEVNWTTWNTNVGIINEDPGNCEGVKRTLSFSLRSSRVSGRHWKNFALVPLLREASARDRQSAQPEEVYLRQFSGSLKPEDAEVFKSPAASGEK
Chain of GPR55 (Q9Y2T6 whole entry, species assumed): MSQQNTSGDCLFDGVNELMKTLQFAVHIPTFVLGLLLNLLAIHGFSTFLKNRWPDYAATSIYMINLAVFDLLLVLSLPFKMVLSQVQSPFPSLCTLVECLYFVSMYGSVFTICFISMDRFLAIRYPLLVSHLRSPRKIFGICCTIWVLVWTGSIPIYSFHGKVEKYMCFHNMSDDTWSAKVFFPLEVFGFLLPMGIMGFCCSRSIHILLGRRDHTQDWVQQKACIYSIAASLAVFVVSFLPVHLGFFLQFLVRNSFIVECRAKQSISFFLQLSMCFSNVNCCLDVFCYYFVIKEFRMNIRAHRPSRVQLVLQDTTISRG

The Ki is a dissociation constant, usually derived from enzyme kinetics or from competition with a known ligand. Consider `c1ccc2c(Cc3c[nH]c4ccccc34)c[nH]c2c1` [3,3′-Diindolylmethane], for which the inhibition constant Ki at CB2 [1] is ~1 µM.
As for `C=C1CC/C=C(\C)CC[C@@H]2[C@@H]1CC2(C)C` [(E)-BCP, beta-carophyllene], the inhibitory constant (Ki) at CB2 [1] was 0.155 ± 0.004 µM.
Take `C/C1=C\CC/C(C)=C/CC(C)(C)/C=C/C1` [Humulene]: the anti-inflammatory activity result in the series with inflammation is recorded as “equal to dexamethasone”.
For `CCCCCc1cc(O)c2c(c1)OC(C)(C)[C@@H]1CCC(C)=C[C@@H]21` [THC, Δ^9-tetrahydrocannabinol], on CB2 [1], the “activity at CB2” value is “partial agonist”.
On to `COc1ccc(/C=C/c2cc(OC)cc(=O)o2)cc1` [Yangonin, yangonin], for which the results for the Ki on CB1 [2] and on CB2 [1] were 0.72 µM and > 10 µM, respectively.
Turning to `C=C(C)[C@@H]1CCC(C)=C[C@H]1c1c(O)cc(CCCCC)cc1O` [cannabidiol], the “Activity at FAAH” value on FAAH [3] was “Inhibition”. On Adenosine A2A, the “Activity at Adenosine A2A” value was “Agonist”. Besides, the “Activity at GPR55” value on GPR55 is on record as “Antagonist”. Further, on CB1 [4], the “Activity at CB1” value is “Agonist”. Moreover, the “Activity at TRPV1” value at TRPV1 was “Agonist”. Also, the “Activity at 5-HT1a” value on 5-HT1a is “Agonist”. The “activity at CB2” value at CB2 [5] was “Agonist”.
What is called IC50 is the point on the concentration scale where inhibition reaches its midpoint. For `CC(C)CNC(=O)/C=C/C=C/CCCCCC/C=C/c1ccc2c(c1)OCO2` [guineesine], the IC50 on monoamine oxidase is 139 µM.
For `O=c1c(O)c(-c2ccc(O)cc2)oc2cc(O)cc(O)c12` [kaempherol], the results for the IC50 at MAGL and in the series with FAAH [6] were < 0.1 µM and < 1 µM, respectively.
Turning to `O=C(/C=C/C=C/c1ccc2c(c1)OCO2)N1CCCCC1` [piperine], in series [7], the solubility in water was 40 µg/mL (≈ 140 µM).
On to `C=CC(C)(C)c1cc2cc3c(cc2oc1=O)OC(C(C)(C)OC(C)=O)C3` (stereo not drawn) [rutamarin], for which the inhibition constant (Ki) on CB2 [1] was < 10 µM.
